Data taken from publication PMC9303812, “Asymmetrically Substituted m‐Terphenyl Phosphates Inhibit the Transcription Factor STAT5a” (Chembiochem, 2021).
Read-outs that look alike come from different tables or passages of the source.

Legend:
[1] = molecular target: T1, STAT4 (Homo sapiens, UniProt Q14765); test: Fluorescence polarization (FP) binding assay, STAT4
T1 sequence (Q14765 1-748): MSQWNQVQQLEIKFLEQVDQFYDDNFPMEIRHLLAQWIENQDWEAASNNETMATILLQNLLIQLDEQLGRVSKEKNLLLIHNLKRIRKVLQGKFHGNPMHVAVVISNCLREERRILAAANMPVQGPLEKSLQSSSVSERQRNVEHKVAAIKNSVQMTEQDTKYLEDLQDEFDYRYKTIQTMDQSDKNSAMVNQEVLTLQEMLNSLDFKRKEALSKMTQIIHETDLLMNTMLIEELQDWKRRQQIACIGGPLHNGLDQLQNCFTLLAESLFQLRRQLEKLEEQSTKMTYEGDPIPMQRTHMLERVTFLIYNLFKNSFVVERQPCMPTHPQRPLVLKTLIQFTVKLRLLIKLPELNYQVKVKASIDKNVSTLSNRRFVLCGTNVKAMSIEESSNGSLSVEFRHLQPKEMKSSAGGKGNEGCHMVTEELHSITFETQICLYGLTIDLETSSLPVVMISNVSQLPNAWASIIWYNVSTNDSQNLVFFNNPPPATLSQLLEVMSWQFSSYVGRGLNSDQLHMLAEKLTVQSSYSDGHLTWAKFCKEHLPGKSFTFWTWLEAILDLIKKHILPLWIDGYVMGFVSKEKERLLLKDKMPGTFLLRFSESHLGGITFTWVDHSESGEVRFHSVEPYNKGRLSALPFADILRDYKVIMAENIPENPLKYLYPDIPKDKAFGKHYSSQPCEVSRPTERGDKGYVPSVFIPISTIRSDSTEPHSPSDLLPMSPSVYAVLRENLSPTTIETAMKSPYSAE
Method: Ki values were calculated from IC50 values using the published equation.[2] […]
Table S2: Activities of 12 against STAT5 proteins in FP assays.
Fluorescence polarization assays
Fluorescence polarization assays were essentially carried out as previously described.[1] These assays quantitate to which extent a test compound is able to interfere with binding between a STAT protein and a fluorescein-labeled phosphotyrosine-containing peptide, which is known to bind to the SH2 domain of the respective STAT protein. The following protein […]
concentrations were used: 100 nM for STAT1, 150 nM for STAT3, 30 nM for STAT4, 180 nM for STAT5a, 90 nM for STAT5b and 105 nM for STAT6. All peptides were used at a concentration of 10 nM. The following peptides were used: 5 -carboxyfluorescein -GpYDKPHVL for STAT1; 5-carboxyfluorescein -GpYLPQTV-NH2 for STAT3; 5-carboxyfluorescein-GpYLPQNID-OH for STAT4; 5-carboxyfluorescein-GpYLVLDKW for STAT5a/b, and 5-carboxyfluorescein-GpYVPWQDLI-OH for STAT6. As a buffer system, 10 mM Tris (pH 8.0), 50 mM NaCl, 1 mM EDTA, 1 mM DTT, 0.1 % Nonidet P-40 substitute, and 2 % DMSO in water was used. All compounds tested were incubated for 1 h with the protein. Subsequently, the fluorescein-labeled peptide was added and the fluorescence polarization was measured with an Infinite F500 plate reader (Tecan) after another hour. IC50 values were converted to Ki-values using the published equation.[2] […]
3:2 solution was added . The solution was degassed by applying ultrasonic under vacuum for one minute four times. 14 mg of Pd(PPh3)4 (12 µmol, 5 mol %) were added and the solution was refluxed overnight. After cooling down, the mixture was extracted with ethyl acetate, washed with brine and dried over Na2SO4. The crude product was purified by flash column […]
Method 2: Synthesis of dibenzylphosphate esters
The corresponding phenol (1 eq.) was dissolved in 10 ml/mmol MeCN or DMF and CCl4 (5 eq.), DIPEA (2 eq.) and DMAP (0.1 eq.) were added. After cooling down to 0°C, dibenzyl phosphite (1.5 eq.) was added dropwise and stirring was continued at the same temperature. […]

| IC50 ([1]; FP assay) [µM] | Ki ([1]; FP assay, Ki calculated from IC50 (n=3), read-out: STAT4 Ki) [µM] | SMILES | melting point [°C] | Ki [1] [µM] |
| --- | --- | --- | --- | --- |
| 99.3 ± 8 | 49.2 ± 4 | COc1cc(-c2cc(-c3cc(F)c(F)c(F)c3)cc(C(F)P(=O)(O)O)c2)cc(OC)c1OC (stereo not shown) [compound 12] | – | – |
| – | – | COc1cc(-c2cc(OP(=O)(O)O)cc(-c3cc(F)c(F)c(F)c3)c2)cc(OC)c1OC [6 b] | > 260 | 39.7 ± 3 |
